In US20250288557A1, “FORMULATION AND METHOD FOR TREATMENT OF INFECTIONS” (priority 2022, published 2025):
Like-named read-outs stand apart in the source and are kept apart here.

Test system: Piglets
Conditions: for Mortality (%): (number of dead pigs/number of pigs enrolled)x100; for Clinical observations (%): percentage of pigs expressing clinical signs suggestive of product(s) side-effects: po
Protocol: Safety Study: Studies for safety were conducted. The trials assessed the active ingredients individually and according to various combinations.
Example Safety Study: The following provides the procedure(s) and data collected from the exemplary safety study.
Six different sets of pigs were tested with six different formulations: • 1. […] Statin or Atorvastatin (1.6 mg/dose) • 3. Indomethacin (3.64 mg/dose) • 4. Doxycycline (6 mg/dose) • 5. Cimetidine (18 mg/dose) • 6. Positive control (compounded formulation of Atorvastatin, Indomethacin, […], Doxycycline, and Cimetidine)
Methods: A sow farm negative for Porcine Reproductive and Respiratory Syndrome virus (PRRSv) and Mycoplasma hyopneumoniae and experiencing little to no piglet enteric health challenges was enrolled for the study. Piglets (12-14 days of age) orally received one of the six formulations identified above. When receiving a formulation, 1 mL of assigned treatment was obtained and provided to the Piglets.
At d0 and d1, pen-level fecal consistency was studied. At d1, piglet mortality was recorded.
Fecal scores: Average fecal score (pen-level). Fecal scours 0, 1, 2, and 3 corresponded to normal, pasty, semi-liquid, and liquid feces, respectively, with scores of ≥2 corresponding to diarrhea.
Mortality: %=(number of dead pigs/number of pigs enrolled)×100.

SMILES	Mortality (%) (d 0)	Mortality (%) (d 1)	Fecal scores: average fecal score (pen-level) (pig, in vivo)	Palatability (%): percentage of pigs expressing clinical signs suggestive of poor palatability (pig, in vivo) [%]	Fecal scores: average fecal score (pen-level) (pig, in vivo, 1 day)	Clinical observations (%): percentage of pigs expressing clinical signs suggestive of product(s) side-effects (pig, in vivo, 0 day) [%]	Clinical observations (%): percentage of pigs expressing clinical signs suggestive of product(s) side-effects (pig, in vivo, 24 h) [%]	Fecal score of a single litter (pig, in vivo)
C[C@H]1c2cccc(O)c2C(=O)C2=C(O)[C@]3(O)C(=O)C(C(N)=O)=C(O)[C@@H](N(C)C)[C@@H]3[C@@H](O)[C@@H]21 [Doxycycline]	0.0	0.0	0.0	0.0	0.0	0.0	0.0	
CC(C)c1c(C(=O)Nc2ccccc2)c(-c2ccccc2)c(-c2ccc(F)cc2)n1CC[C@@H](O)C[C@@H](O)CC(=O)O [Atorvastatin]	0.0	0.0	0.5	0.0	0.0	0.0	0.0	1
COc1ccc2c(c1)c(CC(=O)O)c(C)n2C(=O)c1ccc(Cl)cc1 [Indomethacin]	0.0	0.0	0.0	0.0	0.0	0.0	0.0	
CN/C(=N/CCSCc1nc[nH]c1C)NC#N [Cimetidine]	0.0	0.0	0.0	0.0	0.0	0.0	0.0	
